According to US9757375B2, “Compounds that inhibit human DNA ligases and methods of treating cancer” (University of Maryland, Baltimore, priority 2007, dated 2017):
Like-named read-outs stand apart in the source and are kept apart here.

Columns and labels:
hLigI = biological target: T1, hLigI (Homo sapiens, UniProt P18858); test: High-throughput fluorescence-based DNA joining (ligation) assay; format: biochemical
T1 construct: made in house
Summary of the method: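 Nicked DNA substrate (10 pmol) was incubated with 0.25 pmol hLigI, with or without 100 μmol/L test compound, in duplicate. Afterwards the DNA was denatured and renatured with a 20-fold excess of unmodified oligonucleotide. Ligation forms an AF488/BHQ1 hairpin, read as reduced fluorescence at 518 nm.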

human DNA ligase III = biological target: T2, human DNA ligase III (Homo sapiens, UniProt P49916); test: as above; format: biochemical
T2 sequence (P49916 1-862 isoform P49916-4): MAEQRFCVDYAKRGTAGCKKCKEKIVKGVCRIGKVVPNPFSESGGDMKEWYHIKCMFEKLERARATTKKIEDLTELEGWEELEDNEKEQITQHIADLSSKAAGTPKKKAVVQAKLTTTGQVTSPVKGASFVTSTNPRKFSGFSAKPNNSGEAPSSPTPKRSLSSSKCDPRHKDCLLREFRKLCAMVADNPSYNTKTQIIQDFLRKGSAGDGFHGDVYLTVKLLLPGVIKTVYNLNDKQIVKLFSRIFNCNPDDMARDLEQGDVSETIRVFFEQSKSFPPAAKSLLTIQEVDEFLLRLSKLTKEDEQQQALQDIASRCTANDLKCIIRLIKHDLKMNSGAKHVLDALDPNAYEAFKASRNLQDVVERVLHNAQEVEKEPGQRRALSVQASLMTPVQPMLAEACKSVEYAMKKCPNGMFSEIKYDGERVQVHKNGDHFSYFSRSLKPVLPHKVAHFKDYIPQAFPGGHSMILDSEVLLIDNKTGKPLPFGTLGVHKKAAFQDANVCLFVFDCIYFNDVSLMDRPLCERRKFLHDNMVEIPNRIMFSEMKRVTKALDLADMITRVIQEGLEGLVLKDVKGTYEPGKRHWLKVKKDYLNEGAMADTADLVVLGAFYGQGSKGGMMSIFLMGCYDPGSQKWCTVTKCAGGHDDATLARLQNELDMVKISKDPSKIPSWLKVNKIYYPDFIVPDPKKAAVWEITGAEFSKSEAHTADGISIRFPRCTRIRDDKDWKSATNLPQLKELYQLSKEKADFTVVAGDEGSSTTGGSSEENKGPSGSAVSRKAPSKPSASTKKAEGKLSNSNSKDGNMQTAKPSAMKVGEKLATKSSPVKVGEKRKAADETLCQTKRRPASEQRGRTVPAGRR
Summary of the method: (§1)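 Ligation joins an AF488-labelled and a BHQ1-labelled oligonucleotide. After denaturation and renaturation with a 20-fold excess of unlabelled competitor strand, the product forms a quenched hairpin, so joining is read as loss of 518 nm fluorescence. Ligase III used a nicked duplex; ligase IV used two duplexes with short complementary single-strand ends.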

human DNA ligase IV = human DNA ligase IV (Homo sapiens, UniProt P49917); test: as above; format: biochemical
human DNA ligase IV, sequence (P49917 whole entry): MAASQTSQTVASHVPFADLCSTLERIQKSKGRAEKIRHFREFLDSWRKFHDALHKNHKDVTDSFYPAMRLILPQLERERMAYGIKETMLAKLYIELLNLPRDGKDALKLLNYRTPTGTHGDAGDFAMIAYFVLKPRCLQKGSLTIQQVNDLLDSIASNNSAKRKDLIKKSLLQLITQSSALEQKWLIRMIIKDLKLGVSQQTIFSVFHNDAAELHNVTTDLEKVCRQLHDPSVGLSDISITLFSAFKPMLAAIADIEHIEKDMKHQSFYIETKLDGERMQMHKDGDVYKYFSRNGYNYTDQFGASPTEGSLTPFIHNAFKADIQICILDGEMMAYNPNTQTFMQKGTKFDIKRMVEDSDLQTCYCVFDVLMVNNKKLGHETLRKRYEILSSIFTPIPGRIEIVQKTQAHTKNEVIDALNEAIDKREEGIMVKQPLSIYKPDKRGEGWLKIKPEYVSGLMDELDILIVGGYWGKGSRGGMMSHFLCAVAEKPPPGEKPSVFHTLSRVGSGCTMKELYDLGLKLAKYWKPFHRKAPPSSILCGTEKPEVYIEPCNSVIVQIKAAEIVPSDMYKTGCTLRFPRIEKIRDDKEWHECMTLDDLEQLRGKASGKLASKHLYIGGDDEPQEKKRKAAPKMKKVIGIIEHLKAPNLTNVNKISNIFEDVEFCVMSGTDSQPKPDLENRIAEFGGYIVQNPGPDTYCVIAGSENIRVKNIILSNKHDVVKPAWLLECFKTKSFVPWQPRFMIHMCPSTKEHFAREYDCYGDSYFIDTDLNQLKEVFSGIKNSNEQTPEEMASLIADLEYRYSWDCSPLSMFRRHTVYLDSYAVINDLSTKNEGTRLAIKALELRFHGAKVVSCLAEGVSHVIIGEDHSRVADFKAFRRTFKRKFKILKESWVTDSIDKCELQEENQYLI
human DNA ligase IV, sequence (Q13426 whole entry partner): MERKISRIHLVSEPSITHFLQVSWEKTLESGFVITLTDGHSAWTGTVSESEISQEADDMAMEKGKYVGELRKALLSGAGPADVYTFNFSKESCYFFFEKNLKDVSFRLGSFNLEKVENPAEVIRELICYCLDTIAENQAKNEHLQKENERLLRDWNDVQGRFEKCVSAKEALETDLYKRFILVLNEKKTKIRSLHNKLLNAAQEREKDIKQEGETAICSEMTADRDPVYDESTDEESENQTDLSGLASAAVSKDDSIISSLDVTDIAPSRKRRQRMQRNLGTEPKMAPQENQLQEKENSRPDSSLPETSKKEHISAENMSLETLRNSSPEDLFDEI
Summary of the method: as §1

MCF10A cells [1] = test: Screen for potentiation of DNA damaging agents (MMS, camptothecin, cis-platinum, 3 aminobenzamide, ionizing radiation); format: cell-based, human; conditions: 1 = no sensitization; for MMS: Ratios of IC50 MCF10A: compound alone vs combination with MMS (100 μM)
Source text: The 192 human DNA ligase inhibitors were screened in parallel for effects on proliferation and the ability to potentiate the effects of several DNA damaging agents using two cell human lines, a colon cancer line HCT116 and a normal breast epithelial cell line MCF10A using a Biomek FX Laboratory Automation Workstation as described (23). The DNA damaging agents used, methyl methanesulfonate (MMS), camptothecin, cis-platinum, 3 aminobenzamide and ionizing radiation, are representatives of classes of agents used to treat cancer. Briefly, HCT116 and MCF10A cells were plated in 96 well plates such that the cultures were about 80% confluent after 5 days incubation. Compounds were added to the cultures at either 15 μM or 50 μM 1 day after plating. After incubation for 3 days, cell lysed in a solution containing 1.2% Igepal CA-630 and SYBR green that stains DNA (1:1000, Molecular Probes, Eugene, Oreg.). Subsequently, fluorescence was measured per well. The studies with DNA damaging agents were performed as follows. […] Cultures were incubated for 3 days and then treated as above.

MCF10A cells [2] = test: MTT cell growth assay; format: cell-based, human; conditions: Homo sapiens, MCF-10A
Experimental: (§2) The activity of hits from the initial screen was further validated using the MTT assay. Briefly, MCF10A and HCT116 cells were seeded in 96 well plates at 300 and 1200 cells per well, respectively, and allowed to adhere overnight. The following day, serial dilutions of compounds in media were added to the cells in a final volume 200 μl. After incubation for 5 days, MTT reagent (3-(4,5-dimthylthiazol-2-yl)-2,5-diphenyltatrazolium) was added and incubation was continued for 4 h. Formazan crystals generated by reduction of the MTT reagent in mitochondria were solubilized with isopropanol prior to the measurement of absorbance at 560 nm wavelength in a plate reader.
To extend the results of the […] cell culture screening assay, a subset of compounds were tested in larger cultures. Different concentrations of Compounds 67 and 151 were added to asynchronous subconfluent populations of HCT116 and MCF10A cells. Asynchronous subconfluent populations of HCT116 and MCF10A cells were pre-treated with different concentrations of compound 64 prior to the addition of 3 aminobenzamide (2 mM) MMS (100 μM) or cis-platinum (1 μM). After incubation for 5 days, cell growth was measured by the MTT assay (16).

HCT116 and MCF10A cells [3] = test: Cell proliferation screen, result stated for one or both cell lines; format: cell-based; conditions: Homo sapiens, read-out: IC50 of inhibition of proliferation
HCT116 cells [4] = test: Screen for potentiation of DNA damaging agents (MMS, camptothecin, cis-platinum, 3 aminobenzamide, ionizing radiation); format: cell-based, human; conditions: compound alone vs combination with MMS (100 μM); 1 = no sensitization
Source text: (§3) The 192 human DNA ligase inhibitors were screened in parallel for effects on proliferation and the ability to potentiate the effects of several DNA damaging agents using two cell human lines, a colon cancer line HCT116 and a normal breast epithelial cell line MCF10A using a Biomek FX Laboratory Automation Workstation as described (23). The DNA damaging agents used, methyl methanesulfonate (MMS), camptothecin, cis-platinum, 3 aminobenzamide and ionizing radiation, are representatives of classes of agents used to treat cancer. Briefly, HCT116 and MCF10A cells were plated in 96 well plates such that the cultures were about 80% confluent after 5 days incubation. Compounds were added to the cultures at either 15 μM or 50 μM 1 day after plating. After incubation for 3 days, cell lysed in a solution containing 1.2% Igepal CA-630 and SYBR green that stains DNA (1:1000, Molecular Probes, Eugene, Oreg.). Subsequently, fluorescence was measured per well. The studies with DNA damaging agents were performed as follows. […] For ionizing radiation, cells were pre-incubated with the compounds at 50 μM for 1 hour prior to exposure to 2 gray of ionizing radiation. Cultures were incubated for 3 days and then treated as above.

HCT116 and MCF10A cells [5] = test: Screen for potentiation of DNA damaging agents, cell line not stated with the result; format: cell-based, human; conditions: 50 μM, MMS 100 μM
Source text: as §3

HCT116 cells [6] = test: MTT cell growth assay; format: cell-based, human; conditions: Homo sapiens, HCT-116
Experimental: as §2
After incubation for 5 days, cell growth was measured by the MTT assay (16).

T4 DNA ligase = biological target: T3, T4 DNA ligase (Enterobacteria phage T4, UniProt P00970); test: High-throughput fluorescence-based DNA joining assay, non-specific inhibitor control; format: biochemical, bacteriophage T4
T3 construct: purchased NEB
T3 sequence (P00970 1-487): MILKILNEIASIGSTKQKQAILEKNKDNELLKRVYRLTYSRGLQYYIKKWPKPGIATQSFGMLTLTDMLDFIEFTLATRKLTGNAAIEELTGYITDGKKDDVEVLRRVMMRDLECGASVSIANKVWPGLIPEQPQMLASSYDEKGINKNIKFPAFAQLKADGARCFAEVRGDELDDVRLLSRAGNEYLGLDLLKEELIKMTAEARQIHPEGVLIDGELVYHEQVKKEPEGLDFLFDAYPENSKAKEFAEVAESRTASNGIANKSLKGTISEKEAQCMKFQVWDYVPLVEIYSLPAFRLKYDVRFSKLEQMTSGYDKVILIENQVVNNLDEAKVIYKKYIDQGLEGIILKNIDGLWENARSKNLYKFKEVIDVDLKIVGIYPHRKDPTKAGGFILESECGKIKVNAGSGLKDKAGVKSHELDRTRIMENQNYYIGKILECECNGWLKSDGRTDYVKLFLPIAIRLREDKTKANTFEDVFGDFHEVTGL
Experimental: Candidate ligase inhibitors identified by CADD were assayed for their ability to inhibit hLigI and T4 DNA ligase using a high-throughput, fluorescence energy transfer-based DNA joining assay (22). Duplicate reactions (30 μL) containing 10 pmol of nicked DNA substrate and either 0.25 pmol of hLigI or 10 units of T4 DNA ligase were incubated in the presence or absence of 100 μmol/L of the putative inhibitor. DNA binding by the candidate DNA ligase inhibitors was measured by displacement of ethidium bromide from DNA as previously described (30).
In addition, to identify compounds that may be non-specific inhibitors of DNA joining, the 192 compounds were also assayed for their ability to inhibit bacteriophage T4 DNA ligase, an enzyme that utilizes the same reaction mechanism as hLigI, has similar adenylation and OB-fold domains but lacks a DBD domain. (6) Although this is also an ATP-dependent DNA ligase, it lacks the domain containing the binding pocket targeted by the in silico screen. Compounds that inhibited T4 DNA ligase were eliminated as non-specific inhibitors that most likely bind to the DNA.

hLigIV/XRCC4 = hLigIV/XRCC4 (Homo sapiens, UniProt P49917); test: Radioactive gel-based DNA ligation assay; format: biochemical; design: concentration or dose not given beside the values
hLigIV/XRCC4, sequence (P49917 whole entry): as the sequence (P49917 whole entry) above
hLigIV/XRCC4, sequence (Q13426 whole entry partner): as the sequence (Q13426 whole entry partner) above

[7] = read-out: % of inhibition @ 100 μM (Helen's data) hLigI
[8] = read-out: % of inhibition @ 100 μM (Helen's data) hLigIII
[9] = 100 μM, read-out: % of inhibition @ 100 μM (Helen's data) hLigIV
[10] = cell growth, compound alone, read-out: IC50 (μM) MCF10A
[11] = sections 'high concentrations (~50 μM)' and 'active in vitro that decreased cell growth', same figures given in μM elsewhere in Table 6, read-out: IC50 MCF10A (head without unit)

T1 sequence (P18858 whole entry): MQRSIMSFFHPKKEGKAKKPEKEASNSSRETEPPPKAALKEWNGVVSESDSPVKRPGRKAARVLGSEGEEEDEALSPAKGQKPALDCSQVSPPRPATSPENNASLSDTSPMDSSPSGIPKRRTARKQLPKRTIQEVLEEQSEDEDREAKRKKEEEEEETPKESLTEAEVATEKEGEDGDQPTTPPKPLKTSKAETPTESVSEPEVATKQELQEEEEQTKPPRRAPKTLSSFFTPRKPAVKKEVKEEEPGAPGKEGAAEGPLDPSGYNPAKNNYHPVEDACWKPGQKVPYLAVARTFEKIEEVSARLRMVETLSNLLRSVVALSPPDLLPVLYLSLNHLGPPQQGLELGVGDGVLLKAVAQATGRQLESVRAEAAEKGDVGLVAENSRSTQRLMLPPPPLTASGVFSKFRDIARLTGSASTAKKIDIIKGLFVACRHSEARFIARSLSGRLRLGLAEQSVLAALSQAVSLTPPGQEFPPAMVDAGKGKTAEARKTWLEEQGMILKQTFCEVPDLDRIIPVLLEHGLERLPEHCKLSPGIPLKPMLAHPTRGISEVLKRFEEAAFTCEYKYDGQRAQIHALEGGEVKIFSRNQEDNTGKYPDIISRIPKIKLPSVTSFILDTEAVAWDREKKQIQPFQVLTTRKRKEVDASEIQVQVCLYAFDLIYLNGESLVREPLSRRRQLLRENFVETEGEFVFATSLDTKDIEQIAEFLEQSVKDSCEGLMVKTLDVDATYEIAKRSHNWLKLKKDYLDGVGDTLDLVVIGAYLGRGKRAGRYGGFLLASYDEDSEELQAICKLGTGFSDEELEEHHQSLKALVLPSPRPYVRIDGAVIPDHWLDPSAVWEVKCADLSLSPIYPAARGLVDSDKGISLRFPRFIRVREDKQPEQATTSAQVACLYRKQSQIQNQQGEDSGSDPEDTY

Row | SMILES | inhibition at 100 µM (hLigI; [7]) [%] | inhibition at 100 µM (human DNA ligase III; [8]) [%] | inhibition at 100 µM (human DNA ligase IV; [9]) [%] | MMS: Ratios of IC50 MCF10A (MCF10A cells [1]) | IC50 (MCF10A cells [2]; [10]) [µM] | IC50 (MCF10A cells [2]; [11]) [µM] | IC50 (HCT116 and MCF10A cells [3]) [µM] | further results
1 | Nn1cnnc1N/N=C/c1cc([N+](=O)[O-])c(Cl)cc1Cl [Compound 195] | 26 | 24 | < 20 | 1.2 | 3 | 3 | < 20 | –
2 | C=CCN1C(=O)/C(=N\NC(=O)c2ccccc2O)c2ccccc21 [Compound 78] | – | > 20 | – | 1.5 | 7.5 | 7.5 | < 20 | inhibition at 100 µM (human DNA ligase IV; read-out: % of inhibition @ 100 μM (Helen's data) hLigIV): < 20%; MMS: Ratios of IC50 HCT116 (HCT116 cells [4]): 1; IC50 ratios of non- and 3-AB treated cells MCF10A (MCF10A cells [1]; compound alone vs combination with 3-AB (2 mM)): 1; enhancement of the cytostatic effect of MMS (HCT116 and MCF10A cells [5]): enhance the cytostatic effect of MMS; IC50 (HCT116 cells [6]; cell growth, compound alone, read-out: IC50 (μM) HCT116): 10 µM; IC50 (HCT116 cells [6]; sections 'high concentrations (~50 μM)' and 'active in vitro that decreased cell growth', same figures given in μM elsewhere in Table 6, read-out: IC50 HCT116 (head without unit)): 10 µM
3 | O=C(Nc1nc2ccccc2s1)c1ccc(Cl)c([N+](=O)[O-])c1 [Compound 165] | < 20 | < 20 | 37.2 | 1 | 3 | 3 | < 20 | % of inhibition @ 100 μM (Helen's data) hLigIV (human DNA ligase IV; 100 μM): 37%
4 | O=C(O)c1ccccc1Nc1ccc([N+](=O)[O-])c2nonc12 [Compound 16] | < 20 | < 20 | < 20 | 1 | 6 | – | < 20 | –
5 | CCn1nc(N)c2c(O)nc(O)cc21 [Compound 93] | – | – | – | – | – | – | – | % activity Inhibition hLigI 100 uM (hLigI; 100 uM): Ø; inhibition at 100 µM (hLigI; read-out: In vitro % inhib hLigI 100): 0%; inhibition at 100 µM (human DNA ligase III; 100 μM, read-out: In vitro % inhib hLigIII 100): 0%; % activity Inhibition hLigIII 100 uM (human DNA ligase III; 100 uM, Ø not defined (0 in Table 5A)): Ø; inhibition at 100 µM (human DNA ligase IV; 100 μM, read-out: In vitro % inhib hLigIV 100): 37 ± 6%; inhibition at 100 µM (human DNA ligase IV; 100 uM, Ø not defined (0 in Table 5A), read-out: % activity Inhibition hLigIV 100 uM): 37.6 ± 6.1%; inhibition of human DNA ligase IV, in words (human DNA ligase IV; in vitro screen): specific for DNA ligase IV; % activity Inhibition LigT4 100 uM (T4 DNA ligase; 100 uM): Ø; inhibition at 100 µM (T4 DNA ligase; 100 μM, read-out: In vitro % inhib T4 100): 0%; % activity Inhibition hLigIV gel (hLigIV/XRCC4): Ø
